Results from PMC5784132, “Investigation of 20S-hydroxyvitamin D3 analogs and their 1α-OH derivatives as potent vitamin D receptor agonists with anti-inflammatory activities” (Scientific Reports, 2018).

How the values were obtained:
[1] = test system: CYP24A1 gene expression; assay: RT-PCR analysis of CYP24A1 expression in HaCaT cells; format: cell-based; conditions: 100 nM, 24 h treatment; for fold induction at 0.1 µM: Homo sapiens, read-out: relative mRNA level for CYP24A1 versus vehicle control
Procedure: Figure 7 20S(OH)D3 analogs upregulate the expression of CYP24A1 encoding the vitamin D catabolic enzyme, CYP24A1, with varying efficiencies. […] The mRNA was isolated and the RT-PCR was performed using specific primers for the CYP24A1 gene (see Methods). Data are presented as mean ± SE (n = 3). *p < 0.05, **p < 0.01 and ***p < 0.001 compared with the control.
HaCaT cells were purchased from Thermo Fisher Scientific (Waltham, MA, USA) and were cultured as for the VDRE reporter assay. The RNA from HaCaT keratinocytes treated with secosteroids or from DMSO controls was isolated using the Absolutely RNA Miniprep Kit (Stratagene, La Jolla, CA, USA). Reverse transcription (100 ng RNA/reaction) was performed with the Transcriptor First Strand cDNA Synthesis Kit (Roche Inc., Mannheim, Germany). Real-time PCR was performed using cDNA diluted 10-fold in sterile water and a SYBR Green PCR Master Mix. The primers for both forward and reverse strands for CYP24A1 were designed based on the mouse and rat sequences using Primer Quest software ([…], San Jose, CA, USA). Reactions (in triplicate) were performed at 50 °C for 2 min, 95 °C for 10 min and then 40 cycles of 95 °C for 15 s, 60 °C for 30 s and 72 °C for 30 s. Data were collected and analyzed on a Roche Light Cycler 480. The amount of the final amplified product for each gene was compared and normalized to the amount of β-actin product as a housekeeping gene using a comparative Ct method.

[2] = target: T1, VDR (Homo sapiens, UniProt P11473); assay: VDRE-luciferase reporter assay in HaCaT cells
T1 sequence (P11473 1-427): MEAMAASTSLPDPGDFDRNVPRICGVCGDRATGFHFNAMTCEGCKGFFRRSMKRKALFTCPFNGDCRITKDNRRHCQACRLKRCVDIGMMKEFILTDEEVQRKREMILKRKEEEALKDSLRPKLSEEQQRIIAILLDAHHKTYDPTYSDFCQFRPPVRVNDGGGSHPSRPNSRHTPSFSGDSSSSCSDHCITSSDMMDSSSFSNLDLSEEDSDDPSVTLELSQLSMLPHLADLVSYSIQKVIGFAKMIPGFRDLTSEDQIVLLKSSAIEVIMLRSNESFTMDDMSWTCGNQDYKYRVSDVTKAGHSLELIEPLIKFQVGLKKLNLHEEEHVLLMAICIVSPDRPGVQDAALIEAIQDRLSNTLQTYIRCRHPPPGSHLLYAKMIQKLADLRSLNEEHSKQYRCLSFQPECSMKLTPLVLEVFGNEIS

[3] = target: T1, VDR; assay: VDRE-luciferase reporter assay in Caco-2 cells
[4] = target: T1, VDR; assay: VDRE-luciferase reporter assay in Jurkat cells
[5] = test system: IFNγ production; assay: IFNγ inhibition assay in anti-CD3 activated splenocytes; conditions: for activity at 0.1 µM: Mus musculus, Splenocyte, 72 h, read-out: IFNγ (ratio ± SD)
[6] = target: T2, mouse CYP27B1 (Mus musculus, UniProt O35084); assay: Metabolism (1α-hydroxylation) of analogs by mouse CYP27B1; format: in vitro ADME; conditions: 0.018 mol/mol phospholipid, 0.8 µM mouse CYP27B1, 20 min, 37 °C
T2 construct: made in house; host or cells: E. coli
T2 sequence (O35084 1-507): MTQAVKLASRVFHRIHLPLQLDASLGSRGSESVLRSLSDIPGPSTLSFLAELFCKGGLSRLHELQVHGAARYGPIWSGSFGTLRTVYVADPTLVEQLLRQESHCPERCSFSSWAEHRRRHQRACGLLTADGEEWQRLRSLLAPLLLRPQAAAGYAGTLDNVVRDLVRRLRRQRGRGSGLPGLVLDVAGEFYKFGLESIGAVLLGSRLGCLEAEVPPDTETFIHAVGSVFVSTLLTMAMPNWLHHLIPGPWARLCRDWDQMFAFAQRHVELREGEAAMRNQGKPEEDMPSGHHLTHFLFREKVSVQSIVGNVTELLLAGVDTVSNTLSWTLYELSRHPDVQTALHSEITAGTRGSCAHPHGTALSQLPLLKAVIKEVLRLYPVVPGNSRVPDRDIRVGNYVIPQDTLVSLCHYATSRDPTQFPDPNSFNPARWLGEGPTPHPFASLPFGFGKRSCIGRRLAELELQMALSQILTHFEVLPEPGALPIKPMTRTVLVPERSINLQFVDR
Procedure: In order to make the 1α-OH derivatives of the 20S(OH)D3 analogs enzymatically, and to assess their likely capacity to be 1α-hydroxylated in vivo, the ability of mouse CYP27B1 to hydroxylate these metabolites was examined. 25(OH)D3, the major natural substrate for CYP27B1[2],[30], was included for comparison. The 20S(OH)D3 analogs were incorporated into phospholipid vesicles and incubated with CYP27B1, then the extent of their metabolism was determined by HPLC (Table 2). All analogs tested except 33 were metabolized by CYP27B1. In each case only a single metabolite was produced, assumed to be the 1α-OH derivative based on the known high specificity of the enzyme for the 1α-position[24],[30],[31]. […] Metabolism of 4 was almost twice that of 20S(OH)D3 and metabolism of 23 almost three fold. Thus, the modifications to C24 and/or C25 seen in 13, 4 and 23 enhanced their ability to be metabolized by CYP27B1. […] In contrast, the introduction of an amide linkage into the side chain, as in 33, prevented its hydroxylation by CYP27B1.
Rat CYP24A1, mouse CYP27B1 and adrenodoxin and human adrenodoxin reductase were expressed in E. coli and purified as described before[28],[30],[35]. To test metabolism of each analog, they were incorporated into phospholipid vesicles made from dioleoyl phosphatidylcholine and cardiolipin by sonication, as before[24],[28]. The substrates in vesicles (510 µM phospholipid) were incubated at 37 °C with either CYP24A1 (0.14 µM) or CYP27B1 (0.8 µM) in a reconstituted system containing adrenodoxin (15 µM) and adrenodoxin reductase (0.4 µM). Samples from incubations with CYP24A1 were extracted with dichloromethane and analysed by HPLC using a 25 cm Grace Alltima C18 column, as before[27],[28]. Products (except 33) were separated using an acetonitrile on water gradient (45% to 100% for 20 min then 100% acetonitrile for 40 min at a flow rate of 0.5 mL/min). For the more polar 33, the acetonitrile gradient was 30% to 100% acetonitrile for 30 min then 100% acetonitrile for 20 min, at 0.5 mL/min. Products from incubations with CYP27B1 were similarly extracted with dichloromethane and analyzed by reverse phase HPLC using a 15 cm Grace Smart C18 column and an acetonitrile in water gradient (10 min 45% to 100% acetonitrile then 20 min at 100% acetonitrile, at 0.5 mL/min).

[7] = target: T3, rat CYP24A1 (Rattus norvegicus, UniProt Q09128); assay: Kinetics of metabolism of analogs in phospholipid vesicles by rat CYP24A1; format: in vitro ADME; conditions: for Km: rat CYP24A1 0.14 µM, phospholipid vesicles, 1 min incubation, ± SE from curve fit
T3 construct: made in house; host or cells: E. coli
T3 sequence (Q09128 36-514): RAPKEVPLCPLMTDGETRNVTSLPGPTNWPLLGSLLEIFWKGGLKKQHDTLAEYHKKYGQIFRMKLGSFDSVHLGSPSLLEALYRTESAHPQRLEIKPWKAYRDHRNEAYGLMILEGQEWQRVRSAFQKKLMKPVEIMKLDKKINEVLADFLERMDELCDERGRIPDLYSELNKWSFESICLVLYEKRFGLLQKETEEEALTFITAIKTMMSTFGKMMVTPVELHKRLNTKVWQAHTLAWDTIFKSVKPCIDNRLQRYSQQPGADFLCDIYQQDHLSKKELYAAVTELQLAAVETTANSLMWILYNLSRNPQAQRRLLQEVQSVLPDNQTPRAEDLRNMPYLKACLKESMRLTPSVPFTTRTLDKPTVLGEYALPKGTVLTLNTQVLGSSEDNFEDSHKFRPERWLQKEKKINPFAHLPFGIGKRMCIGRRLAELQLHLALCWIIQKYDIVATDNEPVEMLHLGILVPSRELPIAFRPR
Procedure: An incubation time of 1 min was chosen to obtain the initial rate based on the time courses (Fig. 6) and previous studies[28],[29].
To test metabolism of each analog, they were incorporated into phospholipid vesicles made from dioleoyl phosphatidylcholine and cardiolipin by sonication, as before[24],[28]. […] Samples from incubations with CYP24A1 were extracted with dichloromethane and analysed by HPLC using a 25 cm Grace Alltima C18 column, as before[27],[28]. […] For the more polar 33, the acetonitrile gradient was 30% to 100% acetonitrile for 30 min then 100% acetonitrile for 20 min, at 0.5 mL/min.

[8] = low dose of 0.1 µg/kg; cited from earlier work

SMILES	Product (% total secosteroids) [6] [% total secosteroids]	fold induction at 0.1 µM [1]	EC50 [2] [nM]	EC50 [3] [nM]	EC50 [4] [nM]	activity at 0.1 µM [5] [%]	Km [7] [mmol/mol PL]	other results
C=C1/C(=C\C=C2/CCC[C@]3(C)[C@@H]([C@H](C)OCCC(C)(C)O)CC[C@@H]23)C[C@@H](O)C[C@@H]1O [22-Oxa, reference compound]								relative mRNA level for CYP24A1 versus vehicle control [1]: 77.5 fold; EC50 ([2]; read-out: VDRE stimulation (EC50 ± SD, nM) HaCaT, HaCaT cells, 24 h, NS: no significance): 40.1 ± 1.5 nM; EC50 ([3]; read-out: VDRE stimulation (EC50 ± SD, nM) Caco-2, Caco-2 cells, 24 h, NS: no significance): 42.5 ± 1.6 nM; EC50 ([4]; read-out: VDRE stimulation (EC50 ± SD, nM) Jurkat, Jurkat cells, 24 h, NS: no significance): 2.9 ± 0.3 nM; decrease of IFNγ production level ([5]; 100 nM): 51%; IFNγ (ratio ± SD) ([5]; ratio to control (1.000), 100 nM, mouse splenocytes, anti-CD3, 72 h): 0.487 ± 0.017
C=C1CC[C@H](O)C/C1=C/C=C1\CCC[C@]2(C)[C@@H]([C@H](C)CCCC(C)(C)O)CC[C@@H]12 [25(OH)D3, 25-hydroxyvitamin D3, reference compound]	86.0							
C=C1/C(=C\C=C2/CCC[C@@]3(C)[C@H]2CC[C@@H]3[C@@](C)(O)CCOC(C)C)C[C@@H](O)C[C@@H]1O [compound 14]		2	226 ± 3.5	188 ± 1.9	248 ± 5	62.8 ± 0.8		
C=C1CC[C@H](O)C/C1=C/C=C1\CCC[C@@]2(C)[C@H]1CC[C@@H]2[C@@](C)(O)CCC=C(C)C [compound 4]	40.6	32.4	460 ± 36.5	580 ± 19.2	439 ± 25.7	83.2 ± 2.3	2.0 ± 1.7	kcat, fold lower than for 1,25(OH)2D3 ([7]; rat CYP24A1): approximately 4 fold
C=C1CC[C@H](O)C/C1=C/C=C1\CCC[C@@]2(C)[C@H]1CC[C@@H]2[C@@](C)(O)CCC(F)(F)C(C)C [compound 23]	57.1	0.9				69.8 ± 3.1	11.6 ± 3.1	Km, fold lower than that for 20S(OH)D3 ([7]; rat CYP24A1): 3–4 fold
C=C1CC[C@H](O)C/C1=C/C=C1\CCC[C@]2(C)[C@@H](C(C)(O)CC(=O)NC(C)C)CC[C@@H]12 (stereo partly shown) [compound 33]	0	1.2				62.8 ± 1.4	15.4 ± 1.7	catalytic efficiency, fold lower than for 13 ([7]; rat CYP24A1): 13 fold; kcat, fold lower than for 1,25(OH)2D3 ([7]; rat CYP24A1): approximately 4 fold
C=C1/C(=C\C=C2/CCC[C@@]3(C)[C@H]2CC[C@@H]3[C@@](C)(O)CCC=C(C)C)C[C@@H](O)C[C@@H]1O [compound 5]		149	198 ± 8.1	182 ± 6.1	237 ± 5.5	38.1 ± 1.7		
C=C1/C(=C\C=C2/CCC[C@]3(C)[C@@H]([C@H](C)CCCC(C)(C)O)CC[C@@H]23)C[C@@H](O)C[C@@H]1O [1,25(OH)2D3, 1α,25-dihydroxyvitamin D3, reference compound]								calcemic effect [8]: substantial calcemic effect; decrease of IFNγ production level ([5]; 100 nM): 60%
C=C1/C(=C\C=C2/CCC[C@@]3(C)[C@H]2CC[C@@H]3[C@@](C)(O)CCC(F)(F)C(C)C)C[C@@H](O)C[C@@H]1O [compound 24]		2.3	254 ± 7.9	236 ± 4.1	305 ± 4.5	56 ± 1		
